Assay results from DBAASP.
Converted amounts (≈) assume the structure as drawn. Values belong to the compound of their own block, whether it stands above or below them.

Tests used:
Assay in all cases: ≥ marks a high value that may be exact or a test limit, other limits are often not marked, values filed in µg/mL are converted to µM
[1] = tested on: Candida albicans ATCC 2002
[2] = tested on: Staphylococcus carnosus KHS
[3] = tested on: Rhodococcus rhodochrous X15
[4] = tested on: Staphylococcus aureus ATCC 2592
[5] = tested on: Enterococcus faecalis 981
[6] = tested on: Psychrobacter faecalis X29
[7] = tested on: Staphylococcus aureus ATCC 25923
[8] = tested on: Bacillus licheniformis X39
[9] = tested on: Salmonella enterica subsp. enterica serovar Typhimurium ATCC 14028
[10] = tested on: Klebsiella pneumoniae ATCC 10031
[11] = tested on: Escherichia coli DH5alpha
[12] = tested on: Pseudomonas aeruginosa Ps4
[13] = tested on: Escherichia coli
[14] = tested on: Staphylococcus aureus
[15] = tested on: Staphylococcus epidermidis
[16] = tested on: Leuconostoc lactis
[17] = tested on: Bacillus cereus
[18] = tested on: Pasteurella multocida
[19] = tested on: Streptococcus uberis
[20] = tested on: Micrococcus luteus
[21] = tested on: Listeria innocua

Structure (SMILES): CC[C@H](C)[C@H](NC(=O)[C@@H]1CCCN1C(=O)[C@H](Cc1ccccc1)NC(=O)[C@@H](N)Cc1ccccc1)C(=O)N[C@H](C(=O)NCC(=O)N[C@@H](CCCCN)C(=O)N[C@@H](CC(C)C)C(=O)N[C@@H](CC(C)C)C(=O)N[C@@H](CO)C(=O)NCC(=O)N[C@@H](CC(C)C)C(=O)N[C@@H](Cc1ccccc1)C(N)=O)C(C)C [FFPIVGKLLSGLF]
MIC [2]: 19 µM (≈ 27.3 µg/mL) | MIC [3]: 4.5 µM (≈ 6.47 µg/mL) | MIC [5]: ≥ 75 µM | MIC [7]: 150 µM (≈ 216 µg/mL) | MIC [8]: 19 µM (≈ 27.3 µg/mL)

Structure (SMILES): CC[C@H](C)[C@H](NC(=O)[C@@H]1CCCN1C(=O)[C@H](CC(C)C)NC(=O)[C@@H](N)Cc1ccccc1)C(=O)N[C@H](C(=O)NCC(=O)N[C@@H](CCCCN)C(=O)N[C@@H](CC(C)C)C(=O)N[C@@H](CC(C)C)C(=O)N[C@@H](CO)C(=O)NCC(=O)N[C@@H](CC(C)C)C(=O)N[C@@H](Cc1ccccc1)C(N)=O)C(C)C [FLPIVGKLLSGLF]
MIC [2]: 19 µM (≈ 26.7 µg/mL) | MIC [3]: 9 µM (≈ 12.6 µg/mL) | MIC [5]: ≥ 37.5 µM | MIC [7]: 150 µM (≈ 210 µg/mL) | MIC [8]: 19 µM (≈ 26.7 µg/mL)

Structure (SMILES): CC[C@H](C)[C@H](NC(=O)[C@H](CCCN=C(N)N)NC(=O)[C@H](Cc1c[nH]c2ccccc12)NC(=O)[C@@H](N)Cc1ccccc1)C(=O)N[C@@H](Cc1c[nH]c2ccccc12)C(=O)N[C@@H](CCCN=C(N)N)C(=O)N[C@@H](Cc1c[nH]c2ccccc12)C(=O)N[C@@H](CCCN=C(N)N)C(N)=O [FWRIWRWR]
MIC [12]: 23.9 µM (≈ 31.2 µg/mL)

Structure (SMILES): CC[C@H](C)[C@H](NC(=O)[C@H](CCCN=C(N)N)NC(=O)[C@@H](NC(=O)[C@H](CC(N)=O)NC(=O)[C@H](CCCN=C(N)N)NC(=O)[C@H](CCC(N)=O)NC(=O)[C@H](Cc1c[nH]c2ccccc12)NC(=O)[C@@H](N)CC(C)C)[C@@H](C)CC)C(=O)N[C@@H](CCCN=C(N)N)C(=O)N[C@@H](CCCN=C(N)N)C(N)=O [LWQRNIRIRR]
MIC [12]: ≥ 177 µM

Structure (SMILES): CC[C@H](C)[C@H](NC(=O)[C@H](CCCCN)NC(=O)[C@H](CC(=O)O)NC(=O)[C@H](CC(C)C)NC(=O)[C@@H](NC(=O)[C@H](CC(N)=O)NC(=O)[C@H](CC(C)C)NC(=O)[C@@H](NC(=O)[C@H](Cc1ccccc1)NC(=O)[C@H](CCC(N)=O)NC(=O)[C@H](CCCCN)NC(=O)CNC(=O)[C@H](C)NC(=O)[C@H](CC(N)=O)NC(=O)[C@H](CCCCN)NC(=O)[C@H](Cc1ccccc1)NC(=O)[C@H](CC(N)=O)NC(=O)[C@H](CCC(=O)O)NC(=O)[C@H](Cc1c[nH]c2ccccc12)NC(=O)[C@H](CC(C)C)NC(=O)[C@@H](N)CO)[C@@H](C)CC)[C@@H](C)CC)C(=O)N[C@@H](CCCN=C(N)N)C(=O)N[C@H]1CSSC[C@@H](C(=O)N[C@@H](CCCN=C(N)N)C(=O)N[C@H](C(=O)O)[C@@H](C)O)NC(=O)CNC(=O)CNC(=O)[C@H](C)NC(=O)[C@H](C(C)C)NC(=O)[C@H](CCCN=C(N)N)NC1=O [SLWENFKNAGKQFILNILDKIRCRVAGGCRT]
MIC [4]: 1.7 µM (≈ 6.04 µg/mL) | MIC [6]: 1.7 µM (≈ 6.04 µg/mL) | MIC [8]: 14 µM (≈ 49.7 µg/mL)

Now from value to compound:

MIC [1]: ≥ 75 µM | MIC [2]: ≥ 37.5 µM | MIC [3]: 4.8 µM (≈ 7.76 µg/mL) | MIC [4]: ≥ 46.4 µM | MIC [5]: ≥ 150 µM | MIC [6]: ≥ 75 µM | MIC [7]: 37.5 µM (≈ 60.6 µg/mL) | MIC [8]: 19 µM (≈ 30.7 µg/mL)
Structure (SMILES): CC[C@H](C)[C@H](NC(=O)[C@H](C)N)C(=O)N[C@@H](CC(C)C)C(=O)N[C@H](C(=O)N[C@H](C(=O)N[C@@H](CC(C)C)C(=O)N[C@@H](C)C(=O)N[C@@H](CC(N)=O)C(=O)N[C@@H](Cc1c[nH]c2ccccc12)C(=O)N[C@@H](C)C(=O)N[C@@H](CCCN=C(N)N)C(=O)N[C@@H](CCCCN)C(=O)N[C@@H](Cc1ccccc1)C(=O)N[C@@H](CC(C)C)C(N)=O)[C@@H](C)O)[C@@H](C)O [AILTTLANWARKFL]

MIC [9]: 16.3 µM (≈ 25 µg/mL) | MIC [10]: 16.3 µM (≈ 25 µg/mL) | MIC [11]: 4.08 µM (≈ 6.25 µg/mL)
Structure (SMILES): CC(C)C[C@H](NC(=O)[C@H](CCCCN)NC(=O)[C@H](CCCCN)NC(=O)[C@H](CC(C)C)NC(=O)[C@H](CC(C)C)NC(=O)[C@H](CCCCN)NC(=O)[C@H](CC(C)C)NC(=O)[C@@H](N)Cc1ccccc1)C(=O)N[C@@H](C)C(=O)N[C@@H](C)C(=O)N[C@@H](CCCCN)C(=O)N[C@@H](CC(C)C)C(=O)N[C@@H](Cc1ccccc1)C(=O)O [FLKLLKKLAAKLF]

MIC [6]: ≥ 400 µM
Structure (SMILES): CC[C@H](C)[C@@H]1NC(=O)[C@H](CCCCN)NC(=O)[C@@H](NC(=O)[C@H](CCCCN)NC(=O)[C@H](C)NC(=O)[C@H](CCCCN)NC(=O)[C@H](CC(=O)O)NC(=O)[C@H](CCSC)NC(=O)[C@H](CC(C)C)NC(=O)[C@@H](NC(=O)CNC(=O)[C@H](C)NC(=O)[C@H](CC(C)C)NC(=O)[C@H](CC(N)=O)NC(=O)[C@@H](NC(=O)[C@@H](NC(=O)[C@@H](NC(=O)[C@H](CC(N)=O)NC(=O)[C@H](CCSC)NC(=O)[C@H](C)NC(=O)[C@@H](NC(=O)[C@H](CC(N)=O)NC(=O)[C@H](CC(C)C)NC(=O)[C@H](Cc2ccccc2)NC(=O)CN)[C@@H](C)O)[C@@H](C)O)C(C)C)[C@@H](C)O)[C@@H](C)O)CSSC[C@@H](C(=O)O)NC(=O)CNC(=O)[C@H](CCCN=C(N)N)NC1=O [GFLNTAMNTVTNLAGTLMDKAKCKIRGC]

MIC [13]: 38.7 µM (≈ 100 µg/mL) | MIC [14]: 38.7 µM (≈ 100 µg/mL) | MIC [15]: ≥ 38.7 µM | MIC [16]: 9.67 µM (≈ 25 µg/mL) | MIC [17]: 19.3 µM (≈ 50 µg/mL) | MIC [18]: 9.67 µM (≈ 25 µg/mL) | MIC [19]: ≥ 38.7 µM | MIC [20]: 0.58 µM (≈ 1.5 µg/mL) | MIC [21]: ≥ 38.7 µM
Structure (SMILES): CC[C@H](C)[C@H](NC(=O)[C@@H](NC(=O)[C@@H]1CCCN1C(=O)[C@@H](NC(=O)[C@@H](NC(=O)[C@H](Cc1cnc[nH]1)NC(=O)[C@@H]1CCCN1C(=O)[C@H](CC(C)C)NC(=O)[C@@H](NC(=O)[C@H](Cc1cnc[nH]1)NC(=O)[C@H](CCC(N)=O)NC(=O)[C@H](C)NC(=O)[C@@H](NC(=O)[C@H](CO)NC(=O)CNC(=O)[C@H](CC(C)C)NC(=O)[C@@H](NC(=O)[C@H](CO)NC(=O)[C@H](CC(C)C)NC(=O)[C@H](CC(C)C)NC(=O)CN)C(C)C)C(C)C)C(C)C)C(C)C)C(C)C)C(C)C)C(=O)N[C@@H](C)C(=O)N[C@@H](CCC(=O)O)C(=O)N[C@@H](Cc1cnc[nH]1)C(=O)N[C@@H](CC(C)C)C(N)=O [GLLSVLGSVAQHVLPHVVPVIAEHL]

MIC [13]: > 56 µM | MIC [14]: 14 µM (≈ 25 µg/mL) | MIC [15]: 6.73 µM (≈ 12 µg/mL) | MIC [16]: 1.68 µM (≈ 3 µg/mL) | MIC [17]: 14 µM (≈ 25 µg/mL) | MIC [18]: ≥ 56 µM | MIC [19]: 14 µM (≈ 25 µg/mL) | MIC [20]: 6.73 µM (≈ 12 µg/mL) | MIC [21]: 14 µM (≈ 25 µg/mL)
Structure (SMILES): CC[C@H](C)[C@H](NC(=O)[C@@H](NC(=O)CN)C(C)C)C(=O)N[C@@H](C)C(=O)N[C@@H](C)C(=O)N[C@@H](C)C(=O)N[C@@H](CCCCN)C(=O)N[C@@H](CCCCN)C(=O)N[C@H](C(=O)N[C@H](C(=O)N[C@@H](CC(N)=O)C(=O)N[C@H](C(=O)N[C@@H](CC(C)C)C(=O)N[C@@H](CCCCN)C(=O)N[C@@H](CC(N)=O)C(=O)N[C@@H](CC(C)C)C(=O)N[C@@H](Cc1ccccc1)C(N)=O)C(C)C)C(C)C)C(C)C [GVIAAAKKVVNVLKNLF]

MIC [13]: 61.5 µM (≈ 99.9 µg/mL) | MIC [14]: 30.7 µM (≈ 50 µg/mL) | MIC [15]: 15.4 µM (≈ 25 µg/mL) | MIC [16]: 7.38 µM (≈ 12 µg/mL) | MIC [17]: ≥ 61.5 µM | MIC [18]: ≥ 61.5 µM | MIC [19]: ≥ 61.5 µM | MIC [20]: ≥ 61.5 µM | MIC [21]: 15.4 µM (≈ 25 µg/mL)
Structure (SMILES): CC[C@H](C)[C@H](NC(=O)[C@@H](NC(=O)[C@H](C)NC(=O)[C@H](C)NC(=O)[C@@H](NC(=O)[C@H](CCCCN)NC(=O)[C@H](CCCCN)NC(=O)[C@@H](NC(=O)[C@@H](NC(=O)[C@H](C)NC(=O)[C@H](Cc1ccccc1)NC(=O)[C@H](CC(C)C)NC(=O)[C@@H](N)CCCCN)C(C)C)[C@@H](C)CC)C(C)C)C(C)C)C(=O)NCC(=O)NCC(=O)N[C@@H](CC(C)C)C(N)=O [KLFAVIKKVAAVIGGL]
